Experimental data as given in patent publication US5654296A, “Condensed heterocyclic compounds, their production and use” (priority 1994, dated 1997).
Counter-ions that a name gives are not always drawn.

Key:
[1] = biological target: T1, GnRH receptors (bovine pituitary anterior lobe membrane fraction) (Bos taurus, UniProt P32236); assay: 125I-leuprolerin GnRH receptor binding inhibition test, bovine pituitary anterior lobe membrane fraction; details: 4° C., 90 minutes, read-out: Binding inhibitory activity (IC50 μM) Bovine
T1 construct: A bovine pituitary anterior lobe membrane fraction containing GnRH receptors was prepared; from tissue; host or cells: bovine pituitary anterior lobe, membrane fraction
T1 sequence (P32236 1-328): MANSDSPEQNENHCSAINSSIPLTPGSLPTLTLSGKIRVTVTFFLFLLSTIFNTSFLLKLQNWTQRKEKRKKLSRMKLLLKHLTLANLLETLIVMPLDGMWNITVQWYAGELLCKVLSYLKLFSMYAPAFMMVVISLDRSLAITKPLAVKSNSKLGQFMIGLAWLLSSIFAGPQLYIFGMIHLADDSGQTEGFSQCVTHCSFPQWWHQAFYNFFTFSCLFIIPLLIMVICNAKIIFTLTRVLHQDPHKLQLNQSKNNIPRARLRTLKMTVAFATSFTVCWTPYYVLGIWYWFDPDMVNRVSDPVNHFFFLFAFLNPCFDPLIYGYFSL
Procedure: Ten (10) μl of 3×10^4 M aqueous leuprolerin solution and 10 μl of 0.01 mg/ml lactoperoxidase were taken in a tube and 10 μl of Na^125 I solution (37 MBq) was added. After stirring, 10 μl of 0.001% H2 O2 was added and the reaction was conducted at room temperature for 20 minutes. Then, 700 μl of 0.05% TFA solution was added to the tube to terminate the reaction and the reaction mixture was purified by reverse-phase HPLC. The HPLC conditions are shown below. ^125 I-leuprolerin was eluted after a retention time of 26-27 minutes. (C) Preparation of a Bovine Pituitary Anterior Lobe Membrane Fraction Containing GnRH Receptors A bovine pituitary anterior lobe membrane fraction containing GnRH receptors was prepared by the same procedure as described under (B). However, a 10,000×G centrifugation supernatant was recentrifuged at 100,000×G for 1 hour to provide the membrane fraction pellet. […] For the rat and human membrane fractions prepared in (B) and (D), each membrane fraction was diluted with assay buffer to a concentration of 200 μg/ml and distributed in 188 μl portions into tubes. As to the bovine membrane fraction prepared in (C), the membrane fraction was diluted with assay buffer to 750 μg/ml and distributed in 188 μl portions into tubes. […] Where the rat or bovine pituitary anterior lobe membrane fraction was used, the reaction was conducted at 4° C. for 90 minutes. Where the membrane fraction of the CHO with human GnRH receptors expressed was used, the reaction was carried out at 25° C. for 60 minutes. […] After filtration, the radioactivity of ^125 I-leuprolerin remaining on the filter was measured with a γ-counter. The expression (TB-SB)/(TB-NSB)×100 (where SB=radioactivity with the compound added, TB=maximum bound radioactivity, NSB=nonspecifically bound radioactivity) was calculated to find the binding inhibition rate of each test compound.

[2] = system: serotonine (5-HT) uptake; assay: Activity to inhibit serotonine (5-HT) uptake; format: biochemical; details: rat whole brain; 3H-5-HT 10 nM; 37° C.; pH 7.4; read-out: 5-HT uptake inhibitory activity (IC50 μM)
Procedure: (a) Activity to inhibit serotonine (5-HT) uptake
The experiment was performed in accordance with the method of Hyttel et al. [Psychopharmacology 60, 13, 1978]. The whole brain of a rat was homogenized in 40 volumes of ice-cooled 0.32M sucrose solution containing 10 μM pargyline and, then, centrifuged (600×G) for 10 minutes. The supernatant was centrifuged (2500×G) for 55 minutes to provide a pellet. This pellet was suspended in Krebs-Ringer-phosphate buffer (pH 7.4; 122 mM NaCl, 4.82 mM KCl, 0.972 mM CaCl2, 1.21 mM MgSO4, 12.7 mM Na2 HPO4, 2.97 mM NaH2 PO4, 0.162 mM EDTA sodium, 10 mM glucose, 1.14 mM ascorbic acid) saturated with a mixed gas (95% O and 5% CO2). To 900 μl of this suspention was added a solution of the test drug (10 μl) in DMSO and the mixture was incubated at 37° C. for 5 minutes. Then, 100 μl of ^3 H-5-HT (final concentration 10 nM) was added and the mixture was further incubated at 37° C. for 5 minutes. This reaction mixture was filtered under suction using a GF/B filter and the filter was washed with 4 ml of the above-mentioned buffer. The radioactivity on the filter was measured by the liquid scintillation method.
The amount of the drug which caused a 50% decrease in 5-HT uptake is shown as 50% inhibitory activity (IC50) in Table 42.

[3] = system: 45Ca2+ uptake (veratrine-stimulated, rat cerebral cortex crude synaptosome fraction); assay: 45Ca2+ uptake inhibition experiment; format: biochemical; details: 30 μM veratrine, 37° C., 10 minutes, read-out: 45Ca2+ uptake inhibitory activity (IC50 μM)
Procedure: The rat cerebral cortex was homogenized in 10 volumes of ice-cooled 0.32M sucrose solution to prepare a crude synaptosome fraction (100×G, 10 min., 12000×G, 20 min.). […] To 900 μl of the homogenate was added a DMSO solution of the test drug (10 μl). The mixture was incubated at 37° C. for 10 minutes, followed by addition of 100 μl of a veratrine solution (containing 0.18 uci ^45 Ca^2+) at a final veratrine concentration of 30 μM. The mixture was incubated at 37° C. for 10 minutes, quenched with 4 ml of ice-cooled EGTA solution (120 mM sodium chloride, 5 mM potassium chloride, 5 mM EGTA, pH=7.5) and suction-filtered using a GF/B filter. The filter was washed twice with 4 ml each of a washing solution (132 mM sodium chloride, 5 mM potassium chloride, 1.3 mM magnesium chloride, 1.2 mM calcium, chloride, 20 mM Tris base, pH 7.5) and the radioactivity of […] was measured by the liquid scintillation method.
The ^45 Ca^2+ uptake inhibition rate was calculated by means of the following equation. [formula] A: The ^45 Ca^2+ uptake after 10 minutes' stimulation with 30 μM veratrine in the presence of the test drug
B: The ^45 Ca^2+ uptake in the absence of veratrine and in the presence of the test drug
C: The ^45 Ca^2+ uptake after 10 minutes' stimulation with 30 μM veratrine in the absence of the test drug
D: The ^45 Ca^2+ uptake in the absence of the test drug and in the absence of veratrine

Structure (SMILES)	IC50 [1] [µM]	IC50 [2] [µM]	IC50 [3] [µM]
COc1ccc2c(c1)CCC1(CCCCN1CCCC1(c3ccccc3)COCc3ccccc31)C2 (centres unmarked) [Example I-36, 3,4-Dihydro-6-methoxy-1'-[3-(4-phenylisochroman-4-yl)propyl]spiro[naphthalene-2(1H),2'-piperidine] hydrochloride]	11	0.0051	0.76
COC(=O)c1cccc(CNCCCC2(c3ccccc3)COCc3ccccc32)c1 (stereo not drawn) [Example I-45, Methyl α-[3-(4-Phenylisochroman-4-yl)propylamino]-m-toluate hydrochloride]	5	–	–
c1ccc(CCNCCCC2(c3ccccc3)COCc3ccccc32)cc1 (stereo not drawn) [Example I-24, 4-[3-(β-Phenethylamino)propyl]-4-phenylisochroman hydrochloride]	7	0.26	1.77
c1ccc(C2(CCCN3CCCCC34CCc3ccccc3C4)COCc3ccccc32)cc1 (centres unmarked) [Example I-35, 3,4-Dihydro-1'-[3-(4-phenylisochroman-4-yl)propyl]spiro[naphthalene-2(1H),2'-piperidine] hydrochloride]	6	0.13	0.14
COc1cc2c(cc1OC)CC1(CCCCN1CCCCC1(c3ccccc3)COCc3ccccc31)CC2 (centres unmarked) [Example I-52, 3,4-Dihydro-6,7-dimethoxy-1'-[4-(4-phenylisochroman-4-yl)butyl]spiro[naphthalene-2(1H),2'-piperidine] hydrochloride]	5	–	–
